Reference: patent EP0429304A2, “Pyridone-carboxylic acid derivatives and their use as veterinary medicines” (SHIONOGI SEIYAKU KABUSHIKI KAISHA trading under the name of …, priority 1989, dated 1991)
Like-named read-outs stand apart in the source and are kept apart here.

Assays:
[1] = tested on: Mycoplasma gallisepticum (MG) S6; test: In vitro sensitivity test (liquid dilution method); format: cell-based; conditions: 37°C, 7 days
[2] = tested on: Mycoplasma gallisepticum (MG) T-7-T, TS-resistant strain isolated from the field; test: In vitro sensitivity test (liquid dilution method); format: cell-based; conditions: 37°C, 7 days
[3] = tested on: Mycoplasma hyopneumoniae (Mh) ST-11; test: In vitro sensitivity test (liquid dilution method); format: cell-based; conditions: 37°C, 7 days
[4] = tested on: Mycoplasma synoviae (MS) 1853; test: In vitro sensitivity test (liquid dilution method); format: cell-based; conditions: 37°C, 7 days
How it was run: (§1)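 Read-out is visual growth after incubation. Conditions were 37°C for 7 days in Frey medium (12 % pig-serum, 0.01 % βNAD; liquid dilution) for MS, and 37°C for 20 to 24 hours on Mueller Hinton agar for S.au. P.pis used 25°C, 40 to 48 hours, on 1.5 % NaCl heart infusion agar.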

[5] = tested on: Mycoplasma synoviae (MS) F10-2as; test: In vitro sensitivity test (liquid dilution method); format: cell-based; conditions: 37°C, 7 days
How it was run: as §1

[6] = tested on: Bordetella bronchiseptica (B.br) ABU-1; test: In vitro sensitivity test (agar dilution method); format: cell-based; conditions: 37°C, 20 to 24 hours
[7] = tested on: Escherichia coli (E.coli) E-17, chicken-origin strain isolated from the field; test: In vitro sensitivity test (agar dilution method); format: cell-based; conditions: 37°C, 20 to 24 hours
How it was run: (§2)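 Bacteria were of animal origin. MS strains were grown by liquid dilution in Frey medium with 12 % pig-serum and 0.01 % βNAD at 37°C for 7 days. S.au was tested by agar dilution on Mueller Hinton agar, 37°C for 20 to 24 hours. P.pis was grown on 1.5 % NaCl heart infusion agar at 25°C for 40 to 48 hours.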

[8] = tested on: Escherichia coli (E.coli) JC-2; test: In vitro sensitivity test (agar dilution method); format: cell-based; conditions: 37°C, 20 to 24 hours
[9] = tested on: Hemophilus paragallinarum (H.pg) 221; test: In vitro sensitivity test (agar dilution method); format: cell-based; conditions: agar dilution, 37°C, 20 hours, 10 % CO₂
[10] = tested on: Hemophilus paragallinarum (H.pg) S-1; test: In vitro sensitivity test (agar dilution method); format: cell-based; conditions: agar dilution, 37°C, 20 hours, 10 % CO₂
[11] = tested on: Hemophilus pleuropneumonia (H.pp) M-1; test: In vitro sensitivity test (agar dilution method); format: cell-based; conditions: 37°C, 20 hours, 10 % CO₂
[12] = tested on: Staphylococcus aureus (S.au) 209P; test: In vitro sensitivity test (agar dilution method); format: cell-based; conditions: 37°C, 20 to 24 hours
How it was run: as §2

[13] = tested on: TS-resistant strain of MG; format: in vivo, chicken; conditions: for Number of infected fowl/Number of fowl tested: 3.5 x 10³ CFU/fowl
TS-resistant MG [14] = test: Experimental MG infection to chicken, through bait; format: in vivo; conditions: 9-days chicken; for Number of fowl having air sack lesions: 1.8 x 10³ CFU/fowl; for Number of infected fowl/Number of fowl tested: 6.6 x 10³ CFU/fowl, dissection 6th day after inoculation
H.pg strain (i.e. 221) = test: Experimental H.pg infection to chicken, through bait; format: in vivo; conditions: 28-days chicken infected with 4 x 10⁸ CFU/fowl, dissection, 10th day after inoculation
Excerpt: (§3) In these experiments, the compound (I) was applied to the designated animals by (1) oral administration, (2) incorporation into baits and (3) intramuscular injection, the details of which are explained below.

TS-resistant MG [15] = test: Experimental MG infection to chicken, through injection; format: in vivo; conditions: 5 fowl tested, 10-days chicken, 3.1 x 10³ CFU/fowl
[16] = tested on: H.pp (otherwise called Actinobacillus pleuropneumoniae) strain M-1; test: Experimental H.pp infection to pig, through injection; format: in vivo; conditions: injection to thigh muscle one time, dissection 6 days after inoculation
Description: as §3
(3) Preparation of the MG infected fowls was performed in the same manner as in (1) above. Infection of H.pp (otherwise called Actinobacillus pleuropneumoniae) to cause pleuropneumonia in pig was performed by inoculating 5 ml of a fresh cultured strain (i.e. M-1) of H.pp to each nasopharyngeal of some 45 days pigs, each weighing 4 to 9 kg (4 to 5 pigs/group), followed by injection of the test compounds to each thigh muscle at a designated volume one time. Pigs were dissected 6 days after the inoculation. The evaluation of the antimicrobial activity was made by observation of the pneumonia symptomes in air sacs, number of dead body and degree of nodosity in air sacks on dissection.

[17] = tested on: Salmonella typhimurium (S.typhi) 13311; test: In vitro sensitivity test (agar dilution method); format: cell-based; conditions: 37°C, 20 to 24 hours
[18] = tested on: Pasteurella piscicida (P.pis) No. 2; test: In vitro sensitivity test; format: cell-based; conditions: 25°C, 40 to 48 hours
How it was run: as §1

Acute toxicity (LD50) = conditions: in vivo, read-out: LD₅₀
Excerpt: The compounds (I) according to the invention show a higher antimicrobial activity than the control or commercially available antimicrobial agents with a smaller dosage. […]

Q: What does the source list for `CCN1CCN(c2cc3c(cc2F)c(=O)c(C(=O)O)cn3C2CC2)CC1` [ERFX, Enrofuroxasin®, reference compound]?
A: In vitro Sensitivity Test MG S6 [1]: 0.1 µg/mL; In vitro Sensitivity Test MG T-7-T [2]: 0.1 µg/mL; In vitro Sensitivity Test Mh ST-11 [3]: 0.05 µg/mL; In vitro Sensitivity Test MS 1853 [4]: 0.1 µg/mL; In vitro Sensitivity Test MS F10-2as [5]: 3.13 µg/ml; In vitro Sensitivity Test B.br ABU-1 [6]: 0.1 µg/mL; In vitro Sensitivity Test E.coli E-17 [7]: 0.1 µg/ml; In vitro Sensitivity Test E.coli JC-2 [8]: 0.1 µg/mL; In vitro Sensitivity Test H.pg 221 [9]: 0.1 µg/mL; In vitro Sensitivity Test H.pg S-1 [10]: 0.2 µg/mL; In vitro Sensitivity Test H.pp M-1 [11]: 0.2 µg/mL; In vitro Sensitivity Test S.au 209P [12]: 0.1 µg/mL; Number of infected fowl/Number of fowl tested ([13]; oral 1.56 mg/kg, 9-days chicken): 2/5; Number of fowl having air sack lesions ([13]; oral 3.13 mg/kg, 9-days chicken, 2.2 x 10³ CFU/fowl): 2; Number of infected fowl/Number of fowl tested ([13]; oral 3.13 mg/kg, 9-days chicken): 0/5; Number of fowl having air sack lesions ([13]; oral 6.25 mg/kg, 9-days chicken, 1.7 x 10³ CFU/fowl): 1; Number of fowl having air sack lesions ([13]; oral 6.25 mg/kg, 9-days chicken, 2.2 x 10³ CFU/fowl): 0; Number of infected fowl/Number of fowl tested ([13]; oral 6.25 mg/kg, 9-days chicken): 0/5; Number of fowl having air sack lesions ([13]; oral 6.25 mg/kg, 10-days chicken, 1.2 x 10³ CFU/fowl): 2; Number of fowl having air sack lesions ([13]; oral 6.25 mg/kg, 10-days chicken, 3.0 x 10³ CFU/fowl): 2; Number of fowl having air sack lesions ([13]; oral 12.5 mg/kg, 9-days chicken, 1.7 x 10³ CFU/fowl): 0; Number of fowl having air sack lesions ([13]; oral 12.5 mg/kg, 9-days chicken, 2.2 x 10³ CFU/fowl): 0; Number of fowl having air sack lesions ([13]; oral 12.5 mg/kg, 10-days chicken, 1.2 x 10³ CFU/fowl): 0; Number of fowl having air sack lesions ([13]; oral 12.5 mg/kg, 10-days chicken, 3.0 x 10³ CFU/fowl): 0; Number of fowl having air sack lesions ([13]; oral 25.0 mg/kg, 9-days chicken, 1.7 x 10³ CFU/fowl): 0; Number of fowl having air sack lesions ([13]; oral 25.0 mg/kg, 10-days chicken, 1.2 x 10³ CFU/fowl): 0; Number of fowl having air sack lesions ([13]; oral 25.0 mg/kg, 10-days chicken, 3.0 x 10³ CFU/fowl): 0; complete inihibition of the lesions in air sac at a concentration of ([13]; oral administration, MG-infected chicken): 12.5 mg/kg; Number of fowl having air sack lesions (TS-resistant MG [14]; bait 15.6 ppm/Day): 1; Number of fowl having air sack lesions (TS-resistant MG [14]; bait 31.3 ppm/Day): 0; Number of infected fowl/Number of fowl tested (TS-resistant MG [14]; bait 31.3 ppm/Day): 1/7; Number of fowl having air sack lesions (TS-resistant MG [14]; bait 62.5 ppm/Day): 0; Number of infected fowl/Number of fowl tested (TS-resistant MG [14]; bait 62.5 ppm/Day): 0/7; Number of infected fowl/Number of fowl tested (TS-resistant MG [14]; bait 125 ppm/Day): 0/7; Effective concentration to prevent pituita (H.pg strain (i.e. 221)): 7.8 ppm/day; Number of fowl having air sack lesions (TS-resistant MG [15]; Dose 1.56 mg/kg): 3; Number of fowl having air sack lesions (TS-resistant MG [15]; Dose 3.13 mg/kg): 2; Number of pig died or developed dyspnea/Number of pig tested ([16]; Dose 5 mg/kg): 0/4; Number of pig having nodi/Number of pig tested ([16]; Dose 5 mg/kg): 0/4; Number of pig died or developed dyspnea/Number of pig tested ([16]; Dose 10 mg/kg): 0/4; Number of pig having nodi/Number of pig tested ([16]; Dose 10 mg/kg): 0/4

Q: Which results are given for `CNCC12CCCC1CN(c1c(F)cc3c(=O)c(C(=O)O)cn(C4CC4)c3c1F)C2.Cl` (stereo not shown) [I-5]?
A: In vitro Sensitivity Test MS F10-2as [5]: 0.2 µg/ml; In vitro Sensitivity Test S.typhi 13311 [17]: 0.2 µg/mL; In vitro Sensitivity Test P.pis No. 2 [18]: 1.56 µg/mL; antimicrobial activity compared with ERFX ([13]; in vivo, po): two times more effective than ERFX; complete inihibition of the lesions in air sac at a concentration of ([13]; in vivo, po): about 3.13 mg/kg; Infectious index Left air sack + ([13]; in vivo, po, 1.56 mg/kg): 0; Infectious index Left air sack ++ ([13]; in vivo, po, 1.56 mg/kg): 0; Infectious index Left air sack +++ ([13]; in vivo, po, 1.56 mg/kg): 0; Infectious index Left air sack - ([13]; in vivo, po, 1.56 mg/kg): 4; Infectious index Right air sack + ([13]; in vivo, po, 1.56 mg/kg): 0; Infectious index Right air sack ++ ([13]; in vivo, po, 1.56 mg/kg): 1; Infectious index Right air sack +++ ([13]; in vivo, po, 1.56 mg/kg): 1; Infectious index Right air sack - ([13]; in vivo, po, 1.56 mg/kg): 2; Number of fowl having air sack lesions ([13]; in vivo, po, 1.56 mg/kg): 2; Infectious index Left air sack + ([13]; in vivo, po, 3.13 mg/kg): 0; Infectious index Left air sack ++ ([13]; in vivo, po, 3.13 mg/kg): 0; Infectious index Left air sack +++ ([13]; in vivo, po, 3.13 mg/kg): 0; Infectious index Left air sack - ([13]; in vivo, po, 3.13 mg/kg): 5; Infectious index Right air sack + ([13]; in vivo, po, 3.13 mg/kg): 0; Infectious index Right air sack ++ ([13]; in vivo, po, 3.13 mg/kg): 0; Infectious index Right air sack +++ ([13]; in vivo, po, 3.13 mg/kg): 0; Infectious index Right air sack - ([13]; in vivo, po, 3.13 mg/kg): 5; Number of fowl having air sack lesions ([13]; in vivo, po, 3.13 mg/kg): 0; Infectious index Left air sack + ([13]; in vivo, po, 6.25 mg/kg): 0; Infectious index Left air sack ++ ([13]; in vivo, po, 6.25 mg/kg): 0; Infectious index Left air sack +++ ([13]; in vivo, po, 6.25 mg/kg): 0; Infectious index Left air sack - ([13]; in vivo, po, 6.25 mg/kg): 5; Infectious index Right air sack + ([13]; in vivo, po, 6.25 mg/kg): 0; Infectious index Right air sack ++ ([13]; in vivo, po, 6.25 mg/kg): 0; Infectious index Right air sack +++ ([13]; in vivo, po, 6.25 mg/kg): 0; Infectious index Right air sack - ([13]; in vivo, po, 6.25 mg/kg): 5; Number of fowl having air sack lesions ([13]; in vivo, po, 6.25 mg/kg): 0; Infectious index Left air sack + ([13]; in vivo, po, 25 mg/kg): 0; Infectious index Left air sack ++ ([13]; in vivo, po, 25 mg/kg): 0; Infectious index Left air sack +++ ([13]; in vivo, po, 25 mg/kg): 0; Infectious index Left air sack - ([13]; in vivo, po, 25 mg/kg): 5; Infectious index Right air sack + ([13]; in vivo, po, 25 mg/kg): 0; Infectious index Right air sack ++ ([13]; in vivo, po, 25 mg/kg): 0; Infectious index Right air sack +++ ([13]; in vivo, po, 25 mg/kg): 0; Infectious index Right air sack - ([13]; in vivo, po, 25 mg/kg): 5; Number of fowl having air sack lesions ([13]; in vivo, po, 25 mg/kg): 0; Effective concentration to prevent pituita (H.pg strain (i.e. 221)): 1.56 ppm/day; Number of pig died or developed dyspnea/Number of pig tested ([16]; Dose 10 mg/kg): 0/4; Number of pig having nodi/Number of pig tested ([16]; Dose 10 mg/kg): 0/4; LD50 (Acute toxicity (LD50); ip, Mouse (B6C3F₁, male), i.p.): 200 mg/kg; LD50 (Acute toxicity (LD50); po, Chicken ( -days), p.o.): 500 mg/kg; LD50 (Acute toxicity (LD50); po, Mouse (B6C3F₁, male), p.o.): 2000 mg/kg
